{
  "source": "patent US6680025B2",
  "about": "“Device and method for photoactivation” (Cerus Corporation, priority 1989, dated 2004)",
  "key": {"[1]": {"system": "DNA polymerase I from E. coli. B", "details": "covalently bound compound; cited from earlier work"}, "PCR'd MACS 1555 target": {"system": "PCR'd MACS 1555 target", "test": "Inhibition of PCR by non-psoralen compounds in the absence of light", "type": "biochemical", "text": "The compounds tested were the following: 1) ethidium bromide (a Phenanthridine, see Table 1), 2) xylene cylanol (an Organic Dye, see Table 1), 3) bromphenol blue (an Organic Dye, see Table 1), 4) coumarin and 5) methylene blue (a Phenazathionium Salt, see Table 1).\nA separate experiment examined PCR inhibition with coumarin and methylene blue in the absence of light. The following concentrations of methylene blue were tried: 4.3×10^−2, 4.3×10^−3, 4.3×10^−4 and 4.3×10^−5 M. Concentrations of coumarin tried included: 7×10^−3, 7×10^−4, 7×10^−5 and 7×10^−6 M. Compound was added to PCR tube containing α-^32P-dCTP and target (1 μl […].; PCR'd MACS 1555 per assay-point). PCR was carried out for 30×cycles. Samples were loaded onto a 12%/8 M urea gel."}, "[2]": {"details": "as reported by Dall'Acqua et al.; cited from earlier work"}, "[3]": {"test": "Solubility of photoreactive compounds in 1×TE", "type": "physicochemical", "details": "excess compound heated 50-70° C., stirred at room temperature, filtered, optical density", "method": "The solubilities of AMIP, AMDMIP, DMIP, MIP and isopsoralen (IP) were determined experimentally according to the scheme set forth in FIG. 5. To perform the solubility measurement, it was first necessary to establish known optical densities for a 1 μg/ml solution of each compound. These were determined by preparing either ethanolic or aqueous stocks of each compound at known concentrations in 1×TE, then measuring the optical density of each solution. From this information, the absorption of a 1 μg/ml solution was computed. Alternatively, the extinction coefficient may be thus determined and used in the same fashion. In this manner, the following absorption data was collected:\nFollowing this step, undissolved compound was removed by filtration using a 0.2 u nylon-66 syringe filter (Arco LC13; Gelman). The concentration of the remaining soluble compound was then determined by measuring the optical density of the filtrate and computing the solubility from the known optical density of a 1 μg/ml solution of that compound. The solubility of the compounds was thus determined to be as follows: […]"}, "human placental DNA": {"system": "human placental DNA", "test": "PCR in presence of AMDMIP and DMSO co-solvent", "type": "biochemical", "details": "no AMDMIP, 0% DMSO gave 139,000", "method": "In this example, the effect of DMSO on PCR amplification in the presence of high concentrations of sterilizing compound (AMDMIP) was investigated. Samples were prepared for PCR which contained 1 μg of human placental DNA either with or without (unirradiated) AMDMIP (200 μg/ml). The samples were amplified 30 cycles under standard PCR conditions in the presence of 0%, 1%, 5% or 10% DMSO. The reaction mix contained α-^32P-dCTP. Following amplification, the samples were analyzed by PAGE (data not shown)."}, "Taq I DNA polymerase": {"system": "Taq I DNA polymerase", "test": "Primer extension on site-specific monoadducted 71-mer, Taq polymerase", "type": "biochemical, Thermus aquaticus", "details": "55° C., single extension", "method": "In this experiment, monoadducted 71-mers (as well as unmodified 71-mers) were used in template-dependent enzymatic extension. AMIP, AMDMIP, and MIP 71-mer monoadducts were made as in Example 42. Extension was carried out as in Example 43 except that in this experiment, Taq I DNA polymerase, a thermostable DNA polymerase isolated from Thermus aquaticus (Stratagene, Inc., La Jolla, Calif.) was assessed for its ability to read past isopsoralens.\nThe reaction mixture was in 80 μl total volume and comprised 1×Taq buffer, 200 μM each of dNTP's, 0.05 units of Taq per μl of reaction volume; 1×10^−9 M in 71-mer MA; 1×10^−8 M in ^32P-labelled SK-39. Each reaction was set up with everything except Taq polymerase. The samples were initially heated to 95° C. for 5 mins, then incubated at 55° C. for 3 mins. The extension reaction was initiated by addition of Tas polymerase. At the indicated time points (0.5, 1.0, 5.0 mins), 20 μl of the reaction mix was removed to a tube containing 1 μl of 0.5 M EDTA to stop the reaction. All products were analyzed on a 20% polyacrylamide, 7 M urea gel followed by autoradiography.\nThis experiment investigated whether blocking of Tag polymerase by monoadducts is complete or whether monoadducts can be bypassed by the enzyme. In order to view the process of bypass syrthesis, it is necessary to cycle the extension reaction of the primer with the 71-mer templates. Cycling in this case consists of mixing the primer with the 71-mer template, adding Taq polymerase and appropriate reagents, extending, heating to induce strand separation, reannealing of the primer to the 71-mer template, extending again, and subsequent stand separation. This process can be repeated as necessary. During this process, only the complement of the 71-mer template is being synthesized. It is accumulating in a linear fashion with the number of thermal cycles (in contrast to PCR where both strands are being synthesized and accumulate geometrically).\nThe templates and reaction conditions were as in Example 44 above except that three samples were used for each monoadduct and each sample was tested under different conditions:\nSamples (1): one sample for each monoadduct was used to carry out extension at 55° C. as in Example 43;\nSamples (2): one sample for each monoadduct was used to carry out extension by the following series of steps: denaturing at 95° C.; incubating for 30 seconds at 55° C.; adding Taq polymerase for 3 minutes at 55° C.; cooling the reaction for 1 minute at 7° C.; stopping the reaction with EDTA for one minute at 95° C.\nSamples (3): one sample for each monoadduct was used to carry out extension by repeating the following series of steps nine times: denaturing at 95° C.; incubating for 30 seconds at 55° C.; adding Taq polymerase for 3 minutes at 55° C.; cooling the reaction for 1 minute at 7° C. At the end, the reaction is stopped with EDTA for one minute at 95° C.\nTo investigate this question further, a new 5-MIP monoadducted 71-mer was prepared by repurification of the HPLC purified 5-MIP ronoadducted 15-mer by PAGE. In this way, more of the non-monoadducted 15-mer was removed prior to ligation. The purified 71-mer was then used as template in an extension experiment as described in Example 45. After 10 cycles, there was still evidence of extension product (FIG. 34).\nMonoadducted 71-mer was constructed as described, but for HMT. Extension was carried out and analyzed as before on PAGE. […] Full length 71-mer is not made and a shorter strand corresponding to the position of the HMT adduct was made."}, "E. coli polymerase I": {"system": "E. coli polymerase I", "details": "cited from earlier work"}, "HIV 115-mer": {"system": "HIV 115-mer", "test": "PCR with pre-irradiated photobiotin or monoazide ethidium chloride", "type": "biochemical", "method": "In this experiment, photobiotin and monoazide ethidium chloride were tested as PCR sterilization reagents. The temporal steps were performed to examine photoproduct effects (if any). Solutions of photobiotin and monoazide ethidium chloride were made up in 1×Taq buffer. […] Each compound solution was divided into two parts: One part was irradiated under a GE sunlamp through a pyrex filter (300nm cut-off); the other half was irradiated under a GE sunlamp through a 2.9 M NaNO2 liquid filter (400 nm cut-off). Irradiations were carried out on ice for 15 minutes. After irradiation, aliquots of each tube were carried over into tubes containing PCR reagents and target (HIV 115-mer); PCR was then carried out for 30 cycles in the presence of α-^32P-dCTP. After amplification aliquots were analyzed on 12% acrylamide/8M urea gels."}, "Taq polymerase": {"biological_target": "Taq polymerase (Thermus aquaticus, UniProt P19821)", "sequence (P19821 whole entry)": "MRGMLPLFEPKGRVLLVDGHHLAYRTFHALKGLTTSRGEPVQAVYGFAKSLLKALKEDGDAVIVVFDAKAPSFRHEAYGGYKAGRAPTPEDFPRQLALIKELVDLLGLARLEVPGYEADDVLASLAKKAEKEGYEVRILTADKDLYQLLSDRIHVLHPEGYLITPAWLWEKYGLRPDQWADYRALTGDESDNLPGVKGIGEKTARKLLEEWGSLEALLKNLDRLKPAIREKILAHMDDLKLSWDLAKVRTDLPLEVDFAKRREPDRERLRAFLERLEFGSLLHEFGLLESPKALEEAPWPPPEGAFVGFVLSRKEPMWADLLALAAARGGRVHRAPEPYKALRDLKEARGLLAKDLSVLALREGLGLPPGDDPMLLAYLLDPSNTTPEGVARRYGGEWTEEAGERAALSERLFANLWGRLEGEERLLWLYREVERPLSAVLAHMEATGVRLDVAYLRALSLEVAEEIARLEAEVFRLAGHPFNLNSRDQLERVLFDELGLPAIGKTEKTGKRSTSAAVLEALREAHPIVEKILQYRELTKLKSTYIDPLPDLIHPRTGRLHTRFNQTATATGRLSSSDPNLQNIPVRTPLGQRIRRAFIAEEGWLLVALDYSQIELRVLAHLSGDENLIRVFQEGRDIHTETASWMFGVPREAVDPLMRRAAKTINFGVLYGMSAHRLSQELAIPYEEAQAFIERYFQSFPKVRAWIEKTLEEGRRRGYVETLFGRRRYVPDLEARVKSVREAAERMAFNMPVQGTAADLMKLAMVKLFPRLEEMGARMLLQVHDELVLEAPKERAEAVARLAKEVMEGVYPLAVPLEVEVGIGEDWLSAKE", "test": "Taq primer extension of 71-mer after random addition of compound or photoproduct", "type": "biochemical", "details": "photobiotin 6×10^−6 M", "text": "In this experiment, the ability of AMIP, AMDMIP and MIF to block replication of 71-mer is investigated by randomly adding each compound to the 71-mer. Of course, addition may only be random in the sense that one or more adducts may be formed with any one strand of nucleic acid. The actual placement of the isopsoralen may be governed by preferential binding at particular sites (e.g. A:T). In addition to blockage by random adducts, photoproducts of the various isopsoralens may be providing an inhibitory effect. No attempt to separate the effects of photoproduct from the effects of covalent adducts on the 71-mer template was made in this series of experiments.\nIn these experiments, the 71-mer template (10^−9 M) was primed with ^32P-SK-39 (10^−8) and extended with Taq polymerase in a total volume of […]. The dNTP concentration was 200 μM. In the control samples, the 71-mer, the primer, and the dNTPs were mixed in Taq buffer in a volume of 18 p1. These samples were initially denatured at 95° C. for 5 minutes, followed by equilibration at 55° C. for 3 minutes. Taq enzyme was then added (0.5 units) and the extension reaction was carried out for 5 minutes at 55° C. The reaction was stopped by making the solution 10 mM in EDTA. In another set of samples, the 71-mer in 10 μl was mixed with either AMIP (200 μg/ml), AMDMIP (200 μg/ml), or MIP (60 μg/ml). Half of these samples were irradiated for 15 minutes on the CE-I device at 25° C. The other half was kept in the dark as controls. These samples were then mixed with the primer and dNTPs as before, and were subjected to the same thermal profile and extension reactions as the samples that were described earlier. The results were examined by PAGE. The extended product bands were identified by autoradiography, excised and counted (data not shown). […]\n71-mer was made up in Taq buffer. Samples were prepared as follows: 1) dark control samples were not subjected to activating light; 2) 10 μl samples of the 71-mer (2×10^−9 M) were irradiated in the presence of 200 μg/ml AMDMIP, and 3) 10 μl samples of a 200 μg/ml solution of AMDMIP were irradiated in the absence of the 71-mer target. All irradiations were carried out with the CE-I device at 25° C. After preparing the above samples, unirradiated AMDMIP was added to one set of the dark control samples. Another set of dark controls received irradiated AMDMIP. ^32P-SK-39 primer and dNTPs were then added to all samples and the volume was adjusted to 18 μl. These samples were denatured at 95° C. for 5 minutes, followed by equilibration at 55° C. for 3 minutes. Taq polymerase was then added and the extension reaction was carried out for 5 minutes. The reaction was stopped by bringing the samples to 10 mM in EDTA. The final concentrations of all reagents during the extension reactions were: […]"}},
  "data": [
    {"smiles": "COc1c2occc2cc2ccc(=O)oc12", "note": "[Compound 8-MOP, 8-methoxypsoralen]", "values": [
      {"measurement": "loss of template activity of modified DNA", "setting": "[1]", "value": 97, "unit": "%"}
    ]},
    {"smiles": "O=c1ccc2ccccc2o1", "note": "[Coumarin, coumarin]", "values": [
      {"measurement": "inhibition of PCR in the absence of light", "setting": "PCR'd MACS 1555 target; dark control, coumarin 7×10^−3 to 7×10^−6 M", "value": "did not inhibit PCR at any of the concentrations tested"}
    ]},
    {"smiles": "COc1cc(OC)c2ccc(=O)oc2c1", "note": "[DMC, 5,7-dimethoxycoumarin]", "values": [
      {"measurement": "loss of template activity of modified DNA", "setting": "[1]", "value": 50, "unit": "%"}
    ]},
    {"smiles": "Cc1cc2c(ccc3c(C)cc(=O)oc32)o1", "note": "[DMIP, 4,5′-Dimethylisopsoralen]", "values": [
      {"measurement": "maximum aqueous solubility", "setting": "[2]", "value": 8, "unit": "µg/mL"},
      {"measurement": "Solubility in 1 × TE", "setting": "[3]", "value": "nd** (nd = not detectable (solubility was less than 1 μg/ml))"}
    ]},
    {"smiles": "C[S+](C)[O-]", "note": "[DMSO, dimethyl sulfoxide]", "values": [
      {"measurement": "product band CPM (average of duplicate samples)", "setting": "human placental DNA; 1% DMSO", "value": "137,000 CPM"},
      {"measurement": "product band CPM (average of duplicate samples)", "setting": "human placental DNA; 5% DMSO", "value": "94,000 CPM"},
      {"measurement": "product band CPM (average of duplicate samples)", "setting": "human placental DNA; 10% DMSO", "value": "76,000 CPM"}
    ]},
    {"smiles": "Cc1oc2c(C)c3oc(=O)cc(C)c3cc2c1CO", "note": "[HMT, 4′-hydroxymethyl-4,5′,8-trimethylpsoralen]", "values": [
      {"measurement": "Taq polymerase extension on 71-mer monoadduct template", "setting": "Taq I DNA polymerase", "value": "stop Tag polymerase"},
      {"measurement": "inhibition of polymerase by covalently bound monoadducts", "setting": "E. coli polymerase I; nick-translating a double-stranded template", "value": "not inhibited"},
      {"measurement": "inhibition of polymerase by monoadducts", "setting": "E. coli polymerase I; single-stranded bacteriophage DNA template", "value": "inhibited"}
    ]},
    {"smiles": "O=c1ccc2ccc3occc3c2o1", "note": "[IP, isopsoralen, reference compound]", "values": [
      {"measurement": "solubility", "setting": "[3]; 1×TE buffer, aqueous buffer, thermodynamic from solid", "value": 2, "unit": "µg/mL"}
    ]},
    {"smiles": "CN(C)c1ccc2nc3ccc(=[N+](C)C)cc-3sc2c1", "note": "[methylene blue]", "values": [
      {"measurement": "concentrations that inhibited PCR in the absence of light", "setting": "PCR'd MACS 1555 target; tested 4.3×10^−2 to 4.3×10^−5 M, 30 cycles", "value": "above 4.3×10^−5 M"}
    ]},
    {"smiles": "CC[n+]1c(-c2ccccc2)c2cc(N=[N+]=[N-])ccc2c2ccc(N)cc21", "note": "[monoazide ethidium chloride, reference compound]", "values": [
      {"measurement": "inhibition of PCR by pre-irradiated compound", "setting": "HIV 115-mer; 3×10^−6 M to 3×10^−10 M, GE sunlamp 15 minutes on ice, 30 cycles", "value": "does not inhibit PCR"},
      {"measurement": "extension of 71-mer, dark control", "setting": "Taq polymerase; monoazide ethidium 1.4×10^−3 M, kept in the dark", "value": "inhibition of extension"}
    ]},
    {"smiles": "CN(CCCNC(=O)CCCC[C@@H]1SC[C@@H]2NC(=O)N[C@@H]21)CCCNc1ccc(N=[N+]=[N-])cc1[N+](=O)[O-]", "note": "[photobiotin, reference compound]", "values": [
      {"measurement": "concentration of pre-irradiated compound that shut down PCR", "setting": "HIV 115-mer; range 7×10^−4 M to 7×10^−10 M, 115-mer amplified at all lower concentrations", "value": 700, "unit": "µM"},
      {"measurement": "extension of 71-mer after irradiation with compound", "setting": "Taq polymerase; GE sunlamp 15 minutes on ice", "value": "inhibition only after irradiation"}
    ]}
  ]
}
